Source: ChEMBL document CHEMBL3425503, “Synthesis and studies on the mGluR agonist activity of FAP4 stereoisomers” (Bioorg Med Chem Lett, 2015)
The source made the active and inactive calls. No cut-off for these calls is given here.

Columns and labels:
Type in all cases: functional, cell-based
[1] = biological target: Metabotropic glutamate receptor 4 (Rattus norvegicus, UniProt P31423); experiment: Agonist activity at rat mGluR4 expressed in HEK293 cells assessed as induction of inositol phosphate production by HTRF assay
Chain of Metabotropic glutamate receptor 4 (P31423 whole entry): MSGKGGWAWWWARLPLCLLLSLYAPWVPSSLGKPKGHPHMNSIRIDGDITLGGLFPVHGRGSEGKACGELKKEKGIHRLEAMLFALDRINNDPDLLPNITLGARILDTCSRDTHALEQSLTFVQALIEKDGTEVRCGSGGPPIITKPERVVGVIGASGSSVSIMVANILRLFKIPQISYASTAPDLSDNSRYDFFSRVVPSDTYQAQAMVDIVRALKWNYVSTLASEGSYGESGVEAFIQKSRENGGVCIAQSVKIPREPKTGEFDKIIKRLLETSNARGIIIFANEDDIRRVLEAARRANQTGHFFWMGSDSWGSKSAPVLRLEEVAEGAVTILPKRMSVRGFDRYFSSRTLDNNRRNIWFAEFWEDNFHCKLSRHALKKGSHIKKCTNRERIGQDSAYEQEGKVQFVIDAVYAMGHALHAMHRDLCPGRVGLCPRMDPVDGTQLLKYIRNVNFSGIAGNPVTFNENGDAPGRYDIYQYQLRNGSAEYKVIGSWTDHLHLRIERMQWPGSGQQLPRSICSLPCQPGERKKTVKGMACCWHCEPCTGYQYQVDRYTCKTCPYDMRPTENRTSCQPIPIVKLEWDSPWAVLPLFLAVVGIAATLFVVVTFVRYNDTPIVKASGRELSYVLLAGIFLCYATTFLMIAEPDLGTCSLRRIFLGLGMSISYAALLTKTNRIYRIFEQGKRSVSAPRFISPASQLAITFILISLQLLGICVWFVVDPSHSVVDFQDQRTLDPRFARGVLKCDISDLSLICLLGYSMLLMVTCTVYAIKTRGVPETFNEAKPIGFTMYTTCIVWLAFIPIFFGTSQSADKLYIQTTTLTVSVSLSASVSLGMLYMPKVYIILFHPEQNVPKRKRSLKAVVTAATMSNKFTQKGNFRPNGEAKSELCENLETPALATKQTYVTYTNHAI

[2] = biological target: Metabotropic glutamate receptor 8 (Rattus norvegicus, UniProt P70579); experiment: Agonist activity at rat mGluR8 expressed in HEK293 cells assessed as induction of inositol phosphate production by HTRF assay
Chain of Metabotropic glutamate receptor 8 (P70579 whole entry): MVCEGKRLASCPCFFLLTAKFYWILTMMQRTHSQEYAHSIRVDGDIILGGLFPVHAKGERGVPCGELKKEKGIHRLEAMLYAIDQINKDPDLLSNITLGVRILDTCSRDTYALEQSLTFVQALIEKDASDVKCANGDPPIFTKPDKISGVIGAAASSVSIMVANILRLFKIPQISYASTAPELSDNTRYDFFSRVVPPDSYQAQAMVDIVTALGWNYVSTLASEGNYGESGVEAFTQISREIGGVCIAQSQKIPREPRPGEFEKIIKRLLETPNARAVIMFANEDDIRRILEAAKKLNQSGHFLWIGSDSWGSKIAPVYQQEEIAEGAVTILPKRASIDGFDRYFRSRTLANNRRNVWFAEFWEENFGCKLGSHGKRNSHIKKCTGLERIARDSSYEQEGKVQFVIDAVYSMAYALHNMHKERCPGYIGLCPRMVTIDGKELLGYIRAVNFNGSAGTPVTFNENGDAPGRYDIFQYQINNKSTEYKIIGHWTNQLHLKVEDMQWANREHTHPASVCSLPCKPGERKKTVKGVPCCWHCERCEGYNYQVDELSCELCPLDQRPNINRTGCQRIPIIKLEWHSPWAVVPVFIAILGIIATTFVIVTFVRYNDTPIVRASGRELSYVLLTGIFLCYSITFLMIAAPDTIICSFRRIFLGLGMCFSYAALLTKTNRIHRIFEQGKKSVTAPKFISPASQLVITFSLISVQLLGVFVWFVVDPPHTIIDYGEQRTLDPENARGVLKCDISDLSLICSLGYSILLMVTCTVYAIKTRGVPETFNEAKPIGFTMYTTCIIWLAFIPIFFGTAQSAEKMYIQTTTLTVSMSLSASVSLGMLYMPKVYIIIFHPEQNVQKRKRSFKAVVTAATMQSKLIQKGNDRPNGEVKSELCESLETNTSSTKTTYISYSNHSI

[3] = biological target: Metabotropic glutamate receptor 7 (Rattus norvegicus, UniProt P35400); experiment: Agonist activity at rat mGluR7 expressed in HEK293 cells assessed as induction of inositol phosphate production by HTRF assay
Chain of Metabotropic glutamate receptor 7 (P35400 whole entry): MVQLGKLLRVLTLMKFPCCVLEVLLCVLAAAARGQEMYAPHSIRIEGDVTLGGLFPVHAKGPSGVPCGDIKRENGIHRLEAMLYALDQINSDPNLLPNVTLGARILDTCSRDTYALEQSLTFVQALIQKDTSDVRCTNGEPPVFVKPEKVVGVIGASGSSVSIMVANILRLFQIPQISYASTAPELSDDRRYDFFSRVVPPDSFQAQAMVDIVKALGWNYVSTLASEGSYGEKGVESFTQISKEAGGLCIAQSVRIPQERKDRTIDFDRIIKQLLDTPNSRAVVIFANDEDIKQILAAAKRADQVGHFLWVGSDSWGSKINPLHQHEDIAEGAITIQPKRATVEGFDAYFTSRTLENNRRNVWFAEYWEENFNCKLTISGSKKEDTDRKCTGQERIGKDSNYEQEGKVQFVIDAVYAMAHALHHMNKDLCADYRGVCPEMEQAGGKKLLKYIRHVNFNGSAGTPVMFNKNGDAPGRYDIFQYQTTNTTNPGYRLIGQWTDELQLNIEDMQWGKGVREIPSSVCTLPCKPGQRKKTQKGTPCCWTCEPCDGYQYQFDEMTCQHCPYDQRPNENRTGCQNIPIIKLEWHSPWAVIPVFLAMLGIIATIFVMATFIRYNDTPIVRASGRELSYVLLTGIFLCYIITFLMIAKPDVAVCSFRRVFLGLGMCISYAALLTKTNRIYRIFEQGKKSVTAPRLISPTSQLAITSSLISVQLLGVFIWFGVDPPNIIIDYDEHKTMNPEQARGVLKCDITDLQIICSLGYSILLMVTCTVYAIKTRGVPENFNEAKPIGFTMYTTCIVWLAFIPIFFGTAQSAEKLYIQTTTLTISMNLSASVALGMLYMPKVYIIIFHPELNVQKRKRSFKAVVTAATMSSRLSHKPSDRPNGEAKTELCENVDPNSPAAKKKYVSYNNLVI

[4] = biological target: Metabotropic glutamate receptor 6 (Rattus norvegicus, UniProt P35349); experiment: Agonist activity at rat mGluR6 expressed in HEK293 cells assessed as induction of inositol phosphate production by HTRF assay
Chain of Metabotropic glutamate receptor 6 (P35349 whole entry): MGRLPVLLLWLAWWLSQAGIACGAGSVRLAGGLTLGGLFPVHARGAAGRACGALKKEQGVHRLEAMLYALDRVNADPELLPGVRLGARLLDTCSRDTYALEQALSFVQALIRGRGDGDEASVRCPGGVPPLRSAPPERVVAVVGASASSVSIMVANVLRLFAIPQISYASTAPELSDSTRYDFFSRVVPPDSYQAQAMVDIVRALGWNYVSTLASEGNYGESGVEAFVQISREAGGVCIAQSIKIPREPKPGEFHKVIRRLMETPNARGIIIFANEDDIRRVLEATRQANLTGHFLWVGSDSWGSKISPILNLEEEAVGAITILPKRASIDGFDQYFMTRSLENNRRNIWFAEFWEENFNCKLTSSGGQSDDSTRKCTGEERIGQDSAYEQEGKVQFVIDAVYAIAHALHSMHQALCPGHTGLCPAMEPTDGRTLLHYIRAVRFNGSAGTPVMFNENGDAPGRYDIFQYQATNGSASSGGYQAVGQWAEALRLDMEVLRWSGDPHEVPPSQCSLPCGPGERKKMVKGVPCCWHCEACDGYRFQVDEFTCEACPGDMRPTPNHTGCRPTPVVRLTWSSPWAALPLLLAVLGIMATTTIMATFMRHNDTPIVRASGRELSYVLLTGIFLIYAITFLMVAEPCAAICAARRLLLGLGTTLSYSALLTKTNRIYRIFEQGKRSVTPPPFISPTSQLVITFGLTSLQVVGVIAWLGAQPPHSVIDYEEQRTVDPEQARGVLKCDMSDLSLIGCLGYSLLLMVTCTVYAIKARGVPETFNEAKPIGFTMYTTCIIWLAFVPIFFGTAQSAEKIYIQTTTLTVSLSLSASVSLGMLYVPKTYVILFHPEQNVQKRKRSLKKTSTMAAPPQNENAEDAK

[5] = biological target: Metabotropic glutamate receptor 2 (Rattus norvegicus, UniProt P31421); experiment: Agonist activity at rat mGluR2 expressed in HEK293 cells assessed as induction of inositol phosphate production by HTRF assay
[6] = biological target: Metabotropic glutamate receptor 5 (Rattus norvegicus) (UniProt P31424); experiment: Agonist activity at rat mGluR5 expressed in HEK293 cells assessed as induction of inositol phosphate production at 100 uM by HTRF assay
Chain of Metabotropic glutamate receptor 5 (Rattus norvegicus) (P31424 21-1203 limits assumed): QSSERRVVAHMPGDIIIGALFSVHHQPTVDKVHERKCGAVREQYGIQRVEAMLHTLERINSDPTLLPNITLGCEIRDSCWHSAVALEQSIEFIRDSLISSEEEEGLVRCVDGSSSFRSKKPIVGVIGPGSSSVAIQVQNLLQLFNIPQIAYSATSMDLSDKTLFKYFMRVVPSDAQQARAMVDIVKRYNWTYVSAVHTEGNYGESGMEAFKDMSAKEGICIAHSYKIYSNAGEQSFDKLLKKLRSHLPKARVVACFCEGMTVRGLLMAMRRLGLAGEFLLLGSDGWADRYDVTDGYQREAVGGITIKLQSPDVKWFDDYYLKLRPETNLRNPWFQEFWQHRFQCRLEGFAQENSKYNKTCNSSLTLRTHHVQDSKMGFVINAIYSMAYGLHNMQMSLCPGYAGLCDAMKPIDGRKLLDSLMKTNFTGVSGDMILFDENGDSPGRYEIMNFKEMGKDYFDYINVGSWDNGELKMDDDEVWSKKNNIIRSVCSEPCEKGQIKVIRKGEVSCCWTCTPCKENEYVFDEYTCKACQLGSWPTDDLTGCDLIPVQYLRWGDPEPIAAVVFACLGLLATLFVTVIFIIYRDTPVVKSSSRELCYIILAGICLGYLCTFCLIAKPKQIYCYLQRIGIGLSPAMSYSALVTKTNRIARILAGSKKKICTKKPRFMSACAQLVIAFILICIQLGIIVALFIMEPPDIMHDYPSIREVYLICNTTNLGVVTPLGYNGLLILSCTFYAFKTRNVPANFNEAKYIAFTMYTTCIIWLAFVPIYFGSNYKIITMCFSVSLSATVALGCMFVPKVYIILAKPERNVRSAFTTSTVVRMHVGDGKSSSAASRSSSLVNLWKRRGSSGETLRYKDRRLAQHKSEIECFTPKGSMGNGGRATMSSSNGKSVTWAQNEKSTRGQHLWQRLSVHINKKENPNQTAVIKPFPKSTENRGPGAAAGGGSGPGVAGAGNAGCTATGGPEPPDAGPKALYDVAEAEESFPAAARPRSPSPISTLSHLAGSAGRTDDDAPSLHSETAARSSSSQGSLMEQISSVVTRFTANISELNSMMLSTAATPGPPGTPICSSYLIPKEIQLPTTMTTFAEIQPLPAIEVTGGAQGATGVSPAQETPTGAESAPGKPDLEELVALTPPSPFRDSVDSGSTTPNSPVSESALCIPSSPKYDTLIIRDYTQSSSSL

[7] = biological target: Metabotropic glutamate receptor 1 (Rattus norvegicus) (UniProt P23385); experiment: Agonist activity at rat mGluR1 expressed in HEK293 cells assessed as induction of inositol phosphate production at 100 uM by HTRF assay

Row | SMILES | EC50 [1] | EC50 [2] | EC50 [3] | EC50 [4] | further results
1 | NC1(C(=O)O)CC1(F)CP(=O)(O)O (single isomer, unassigned; form 1) | 0.12 µM |  |  |  | 
2 | N[C@@H](CCP(=O)(O)O)C(=O)O | 0.03 µM | 0.11 µM | 426 µM | 3.45 µM | 
3 | NC1(C(=O)O)CC1(F)CP(=O)(O)O (stereo in doubt; form 2) | 135 µM |  |  |  | 
4 | N[C@@]1(C(=O)O)C[C@H]1CP(=O)(O)O | 0.03 µM |  |  |  | 
5 | N[C@@H](CCC(=O)O)C(=O)O [GLUTAMIC ACID] | 12.6 µM | 21.5 µM | > 100 µM | 82.2 µM | 
6 | NC1(C(=O)O)CC1(F)CP(=O)(O)O (racemic; form 1) [listing 1 of 2 here] | 0.3 µM | 1.25 µM | > 100 µM | 6.01 µM | EC50 [5]: > 100 µM
7 | NC1(C(=O)O)CC1(F)CP(=O)(O)O (racemic; form 1) [listing 2 of 2 here] |  |  |  |  | Activity [6]: inactive; Activity [7]: inactive
8 | NC1(C(=O)O)CC1(F)CP(=O)(O)O (racemic; form 2) | 0.1 µM |  |  |  | 
9 | NC1(C(=O)O)CC1(F)CP(=O)(O)O (stereo in doubt; form 1) | 11.4 µM |  |  |  | 
10 | NC1(C(=O)O)CC1(F)CP(=O)(O)O (single isomer, unassigned; form 2) | 0.1 µM |  |  |  | 
